Test results reported in article PMC11420954, “Structural and Functional Basis of GenB2 Isomerase Activity from Gentamicin Biosynthesis” (ACS Chemical Biology, 2024).

Experiments:
GenB2 [1] = target: T1, GenB2 (Micromonospora echinospora, UniProt Q70KE6); test: X-ray crystal structure of the holo enzyme; format: binding; conditions: copurified; coenzyme site at the dimer interface, no Schiff base with Lys227; pH 6.0
T1 construct: gene gacE; full length in pET28a, E. coli BL21(DE3), nickel IMAC and gel filtration; plasmid carries an extra 57 nucleotides at the 5' end; homodimer
T1 sequence (Q70KE6 entry or part of it): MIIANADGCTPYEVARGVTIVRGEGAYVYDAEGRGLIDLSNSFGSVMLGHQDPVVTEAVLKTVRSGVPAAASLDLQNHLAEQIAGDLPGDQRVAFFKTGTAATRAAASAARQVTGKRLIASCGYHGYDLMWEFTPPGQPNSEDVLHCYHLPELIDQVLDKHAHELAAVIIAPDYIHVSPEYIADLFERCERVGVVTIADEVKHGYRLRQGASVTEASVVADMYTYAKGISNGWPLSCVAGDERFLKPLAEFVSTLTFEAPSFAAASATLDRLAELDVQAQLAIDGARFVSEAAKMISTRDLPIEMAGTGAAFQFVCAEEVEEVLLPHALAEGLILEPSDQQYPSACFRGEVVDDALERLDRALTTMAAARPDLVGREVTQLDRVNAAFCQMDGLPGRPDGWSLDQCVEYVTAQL

GenB2 [2] = target: T1, GenB2; test: X-ray crystal structure of the complex; conditions: ternary complex with PMP; substrate-binding site; at least 100 mM ligand, pH 6.0, 18 °C
[3] = target: GenB2 (Micromonospora echinospora); test: not stated; GenB2 in solution; the method is not told
[4] = target: GenB2 (Micromonospora echinospora); test: crystal structure; holo GenB2 (PMP) and its complexes with G418 or gentamicin X2; space group C222(1), a single protomer in the asymmetric unit, dimer obtained by a symmetry operation; 0.1 M PIPES pH 6.0, 1 M NaCl, 29% PEG 4000, 30% 6-aminohexanoic acid, 18 °C
GenB2 [5] = target: T1, GenB2; test: epimerisation to gentamicin C2a, HPLC; format: biochemical; conditions: 200 μM substrate, 20 μM enzyme, 50 mM Tris-HCl pH 8.0, 30 °C, overnight
GenB2 [6] = target: T1, GenB2; test: epimerisation to gentamicin C2, HPLC; format: biochemical; conditions: 200 μM substrate, 20 μM enzyme, 50 mM Tris-HCl pH 8.0, 30 °C, overnight

## Cc1ncc(COP(=O)(O)O)c(CN)c1O [pyridoxamine 5-phosphate]
GenB2 [1]
  X-ray crystal structure of the holo enzyme: Each dimer of GenB2 has two PMP molecules bound at the interfaces between the protomers

## CN[C@@H]1[C@@H](O)[C@@H](O[C@@H]2[C@@H](O)[C@H](O[C@H]3O[C@H](CO)[C@@H](O)[C@H](O)[C@H]3N)[C@@H](N)C[C@H]2N)OC[C@]1(C)O (stereo in doubt) [gentamicin X2]
GenB2 [2]
  X-ray crystal structure of the complex: we have obtained the structure of GenB2 in complex with gentamicin G418 and gentamicin X2

## GenB2 (enzyme)
[3]
  stoichiometry N: 2
[4]
  stoichiometry N: 2

## CN[C@@H]1[C@@H](O)[C@@H](O[C@@H]2[C@@H](O)[C@H](O[C@H]3O[C@H]([C@@H](C)N)CC[C@H]3N)[C@@H](N)C[C@H]2N)OC[C@]1(C)O [gentamicin C2]
GenB2 [5]
  epimerisation to gentamicin C2a, HPLC: conversion of gentamicin C2 into C2a or C2a into C2

## CN[C@@H]1[C@@H](O)[C@@H](O[C@@H]2[C@@H](O)[C@H](O[C@H]3O[C@H]([C@H](C)N)CC[C@H]3N)[C@@H](N)C[C@H]2N)OC[C@]1(C)O [gentamicin C2a]
GenB2 [6]
  epimerisation to gentamicin C2, HPLC: wild-type GenB2 was able to perform a high ratio of conversion
